One data set concerns the target T1, 5-HT1A receptors (Rattus norvegicus, UniProt P19327).
T1 construct: Hippocampal tissue from the brains of male Charles River CD rats; from tissue; host or cells: rat hippocampus membrane homogenate
T1 sequence (P19327 1-422): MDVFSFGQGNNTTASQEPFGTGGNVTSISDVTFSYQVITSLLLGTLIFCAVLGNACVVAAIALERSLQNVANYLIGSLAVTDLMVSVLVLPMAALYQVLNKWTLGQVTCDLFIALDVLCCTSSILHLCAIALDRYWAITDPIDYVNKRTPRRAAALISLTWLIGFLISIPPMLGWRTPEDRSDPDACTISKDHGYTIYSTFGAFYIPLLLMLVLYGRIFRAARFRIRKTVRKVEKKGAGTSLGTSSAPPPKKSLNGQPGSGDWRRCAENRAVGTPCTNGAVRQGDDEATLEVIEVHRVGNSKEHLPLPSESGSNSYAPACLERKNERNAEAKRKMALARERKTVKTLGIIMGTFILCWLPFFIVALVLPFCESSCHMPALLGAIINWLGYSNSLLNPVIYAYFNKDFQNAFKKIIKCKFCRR
Nature of the data set: Inhibition of [3H]8-OH-DPAT binding to 5-HT1A receptors, rat hippocampal tissue. As to conditions: ligand [3H]8-OH-DPAT 2 nM. As to the method: Hippocampal tissue from the brains of male Charles River CD rats weighing between 150-250 g were homogenised in ice-cold 50 mM Tris-HCl buffer (pH 7.7) when measured at 25° C., 1:40 w/v) and centrifuged at 30,000 g at 4° C. for 10 minutes. The pellet was rehomogenised in the same buffer, incubated at 37° C. for 10 minutes and centrifuged at 30,000 g at 4° C. for 10 minutes. The final pellet was resuspended in 50 mM Tris-HCl buffer (pH 7.7) containing 4 mM CaCl2, 0.1% L-ascorbic acid and 10 μM pargyline hydrochloride (equivalent to 6.25 mg wet weight of tissue/ml) and used immediately in the binding assay. Aliquots (400 μl; equivalent to 2.5 mg wet weight of tissue/tube) of this suspension were added to tubes containing the ligand (50 μl; 2 nM) and distilled water (50 μl; total binding) or 5-HT (50 μl; 10 μM; non-specific binding) or test compound (50 μl; at a single concentration of 10^−6 M or at 10 concentrations ranging from 10^−11-10^−3 M). The ligand was [^3H]8-hydroxy-2-(dipropylamino)tetralin ([^3H]8-OH-DPAT) and the mixture was incubated at 25° C. for 30 minutes before the incubation was terminated by rapid filtration.
(§1) The filters were washed with ice-cold Tris-HCl buffer and dried. The filters were punched out into vials, scintillation fluid added and radioactivity determined by liquid scintillation counting. The percentage displacement of specific binding of the tritiated ligand was calculated for the single concentration (10^−6 M) of test compound. Displacement curves were then produced for those compounds which displaced ≧50% of specific binding of the tritiated ligand at 10^−6 M using a range of concentrations of the compound. The concentration which gave 50% inhibition of specific binding (IC50) was obtained from the curve. The inhibition coefficient Ki was then calculated using the formula [formula]
(§2) in which [ligand] is the concentration of the tritiated ligand used and KD is the equilibrium dissociation constant for the ligand.

The next data set addresses α1-adrenoceptors. Nature of the data set: Inhibition of [7-methoxy-3H]prazosin binding to α1-adrenoceptors, rat whole cortical tissue. Conditions: ligand [7-methoxy-3H]prazosin 0.1 nM. How it is done: Whole cortical tissue from the brains of male Charles River CD rats weighing between 150-250 g were homogenised in ice-cold 50 mM Tris-HCl, pH 7.6 (at 25° C.; 1:40 w/v) and centrifuged at 1000 g at 4° C. for 10 minutes. The supernatant was centrifuged at 30,000 g at 4° C. for 10 minutes. The pellet was rehomogenised in 50 mM Tris-HCl, pH 7.6 (1:40 w/v) and centrifuged at 30,000 g at 4° C. for 10 minutes. The final pellet was resuspended in 50 mM Tris-HCl, pH 7.6 (equivalent to 12.5 mg wet weight of tissue/ml) and used immediately in the binding assay. Aliquots (400 μl; equivalent to 5 mg wet weight of tissue/tube) of this suspension were added to tubes containing the ligand (50 μl; 0.1 nM) and distilled water (50 μl; total binding) or phentolamine (50 μl; 5 μM; non-specific binding) or test compound (50 μl; at a single concentration of 10^−6M or at 10 concentrations ranging from 10^−11-10^−3M). The ligand was [7-methoxy-^3H]prazosin and the mixture was incubated at 30° C. for 30 minutes before the incubation was terminated by rapid filtration.
as §1, §2

The test system of data set [1] is apomorphine-induced climbing in mice. The data set is described as follows: Antagonism of apomorphine-induced climbing in mice. Conditions: male mice; for ED50: Mus musculus, po 30 minutes before apomorphine 0.88 mg/kg sc, free base equivalents, read-out: ED50 (dose causing 50% of the control score); for duration: po, antagonism of apomorphine-induced climbing. The data set is classed as in vivo. How it is done:
Antagonism of Apomorphine-Induced Climbing in Mice Groups of 10 male mice weighing […] (max. range 10 g) were treated with test compound or control vehicle by po administration. 30 minutes later, mice were injected subcutaneously with apomorphine (0.88 mg/kg). Immediately after the apomorphine injection the mice were placed in the test cages and the climbing behaviour of each mouse was assessed at 10 and 20 minutes on a simple 0-2 ranking scale. The ED50 values (dose causing 50% of the control score) for the test compounds and 95% confidence limits were calculated.

The next data set addresses T2, D2 dopamine receptors (Rattus norvegicus, UniProt P61169).
T2 construct: Striatal tissue from the brains of male Charles River CD rats; from tissue; host or cells: rat striatum membrane homogenate
The data set is described as follows: Inhibition of tritiated (S)-sulpiride binding to D2 dopamine receptors, rat striatal tissue. Conditions: ligand tritiated (S)-sulpiride 1 nM.

T2 sequence (P61169 whole entry): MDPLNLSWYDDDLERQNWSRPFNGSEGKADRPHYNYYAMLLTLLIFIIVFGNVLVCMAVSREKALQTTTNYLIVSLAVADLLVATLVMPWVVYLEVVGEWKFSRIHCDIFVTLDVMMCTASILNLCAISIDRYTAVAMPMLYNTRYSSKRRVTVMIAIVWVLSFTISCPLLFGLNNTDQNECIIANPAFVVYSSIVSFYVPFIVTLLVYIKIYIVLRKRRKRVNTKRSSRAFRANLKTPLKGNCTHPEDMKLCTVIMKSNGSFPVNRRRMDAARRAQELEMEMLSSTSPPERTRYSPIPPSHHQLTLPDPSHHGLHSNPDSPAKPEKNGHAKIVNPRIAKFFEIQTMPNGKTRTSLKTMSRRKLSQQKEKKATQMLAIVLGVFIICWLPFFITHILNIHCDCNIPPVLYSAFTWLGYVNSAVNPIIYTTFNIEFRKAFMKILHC
Procedure for D2 dopamine receptors: Striatal tissue from the brains of male Charles River CD rats weighing between 140-250 g were homogenised in ice-cold 50 mM Tris-HCl buffer (pH 7.7 when measured at 25° C.) and centrifuged at 40,000 g for 10 minutes. The pellet was resuspended in Tris salts buffer (50 mM Tris-HCl buffer containing 120 mM NaCl, 5 mM KCl, 2 mM CaCl2 and 1 mM MgCl2 with the addition of 6 mM ascorbic acid; pH 7.7 when measured at 25° C.), and again centrifuged at 40,000 g for 10 minutes. The final pellet was stored at −80° C. Before each test the pellet was resuspended in Tris salts buffer (equivalent to 2 mg wet weight of tissue/ml). […]
The filters were washed with ice-cold Tris-HCl buffer and dried. The filters were punched out in to vials, scintillation fluid added and were left for about 20 hours before being counted by scintillation spectrophotometry. The percentage displacement of specific binding of the tritiated ligand was calculated for the single concentration (10^−6 M) of test compound. […] The inhibition coefficient Ki was then calculated using the formula [formula] […]

Consider `COc1ccccc1N1CCC(CNC[C@H]2COc3ccc(Cl)cc3O2)CC1` [Comparative Example A, (S)-(−)-N-(7-Chloro-1,4-benzodioxan-2-ylmethyl)-1-(1-(2-methoxyphenyl)piperid-4-yl)methylamine, reference compound], for which the values for the inhibition constant Ki at 5-HT1A receptors and on α1-adrenoceptors were 22 nM and 53 nM, respectively. For the same compound, in data set [1], the ED50 is 5 mg/kg. For the same compound, the duration entry in data set [1] was “[>6 h]”.

With `Oc1ccccc1N1CCC(CNC[C@H]2COc3ccc(Cl)cc3O2)CC1` [Example 1, (S)-(−)-2-{4-[N-(7-chloro-2,3-dihydro-1,4-benzodioxin-2-ylmethyl)aminomethyl]piperidino}phenol], the melting point was 84 to 86 °C. For the same compound, the Ki at 5-HT1A receptors worked out at 12 nM. Further, the affinity on α1-adrenoceptors, expressed as Ki, was 101 nM. The compound also showed a Ki at D2 dopamine receptors of 11 nM. Also, in data set [1], the ED50 came to 3 mg/kg and the duration result was “[>6 h]”.

On to `Oc1ccccc1N1CCC(CNC[C@H]2COc3ccc(C(F)(F)F)cc3O2)CC1` [Example 2, (S)-(−)-2-{4-[N-(7-trifluoromethyl-2,3-dihydro-1,4-benzodioxin-2-ylmethyl)aminomethyl]piperidino}phenol], for which the results for the Ki at 5-HT1A receptors, at α1-adrenoceptors and on D2 dopamine receptors were 37 nM, 573 nM and 25 nM, respectively. Besides, in data set [1], the ED50 was determined as 0.6 mg/kg. In addition, the duration result in data set [1] is “[>4 h]”.

The values above are taken from patent publication US20040039023A1, “Therapeutic agents” (priority 2000, published 2004).
